Target: HEK293 cells with stable expression of the GRIN1 gene and tetracycline-inducible expression of the GRIN2B gene (NMDA receptor, NR2B) (Homo sapiens, UniProt Q13224)
Experiment: Fluo-8 Ca2+ flux assay: reversal of Ro 25-6981-mediated suppression of the Ca2+ response to co-agonist (glutamate/glycine); further: test concentration or dose not given here
Type: cell-based
Conditions: reversal of the Ro 25-6981 suppression of the Ca2+ response to co-agonist (glutamate/glycine)

Sequence of HEK293 cells with stable expression of the GRIN1 gene and tetracycline-inducible expression of the GRIN2B gene (NMDA receptor, NR2B) (Q13224 27-1484, other chains not shown): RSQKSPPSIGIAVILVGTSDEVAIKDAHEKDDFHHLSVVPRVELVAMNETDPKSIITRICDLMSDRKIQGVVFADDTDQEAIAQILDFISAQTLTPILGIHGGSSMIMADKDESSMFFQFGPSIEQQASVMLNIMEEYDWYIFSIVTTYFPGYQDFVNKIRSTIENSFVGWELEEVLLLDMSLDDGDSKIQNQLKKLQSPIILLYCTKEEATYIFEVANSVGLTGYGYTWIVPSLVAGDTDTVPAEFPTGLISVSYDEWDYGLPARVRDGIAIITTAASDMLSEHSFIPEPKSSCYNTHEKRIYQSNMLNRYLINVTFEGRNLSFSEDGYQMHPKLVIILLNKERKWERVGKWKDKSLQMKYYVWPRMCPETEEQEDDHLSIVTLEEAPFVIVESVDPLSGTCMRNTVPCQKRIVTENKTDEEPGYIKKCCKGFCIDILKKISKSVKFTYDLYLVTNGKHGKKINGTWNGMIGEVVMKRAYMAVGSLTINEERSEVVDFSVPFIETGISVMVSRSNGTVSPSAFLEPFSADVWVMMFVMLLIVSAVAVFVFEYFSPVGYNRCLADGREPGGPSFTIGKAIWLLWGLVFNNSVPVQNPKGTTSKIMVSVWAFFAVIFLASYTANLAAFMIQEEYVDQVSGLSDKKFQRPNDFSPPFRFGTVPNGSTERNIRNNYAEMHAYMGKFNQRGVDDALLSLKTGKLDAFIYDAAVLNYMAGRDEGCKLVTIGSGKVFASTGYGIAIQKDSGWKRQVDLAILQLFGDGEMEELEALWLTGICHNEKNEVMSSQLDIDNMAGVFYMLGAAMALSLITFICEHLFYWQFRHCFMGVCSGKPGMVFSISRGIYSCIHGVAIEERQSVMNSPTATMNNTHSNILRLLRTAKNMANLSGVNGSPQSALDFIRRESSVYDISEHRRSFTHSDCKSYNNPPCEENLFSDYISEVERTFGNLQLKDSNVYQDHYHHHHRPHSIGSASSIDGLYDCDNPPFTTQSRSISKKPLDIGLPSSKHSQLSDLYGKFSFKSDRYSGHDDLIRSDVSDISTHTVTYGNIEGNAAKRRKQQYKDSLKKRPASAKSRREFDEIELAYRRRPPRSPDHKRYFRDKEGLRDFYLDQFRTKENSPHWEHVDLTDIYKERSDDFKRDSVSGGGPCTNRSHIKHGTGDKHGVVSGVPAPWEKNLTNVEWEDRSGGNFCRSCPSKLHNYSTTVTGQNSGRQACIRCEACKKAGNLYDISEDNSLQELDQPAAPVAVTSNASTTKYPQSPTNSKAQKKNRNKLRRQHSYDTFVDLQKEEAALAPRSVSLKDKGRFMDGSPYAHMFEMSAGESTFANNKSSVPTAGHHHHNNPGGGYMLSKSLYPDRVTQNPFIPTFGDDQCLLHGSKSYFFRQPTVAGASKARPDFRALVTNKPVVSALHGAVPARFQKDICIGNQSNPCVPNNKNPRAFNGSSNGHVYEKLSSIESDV

SMILES | Response Recovered (%)
O=C(Cn1ccn2ccc(-c3ccc(F)c(C(F)(F)F)c3)c2c1=O)N1CCCC1 [Example 391, 8-(4-fluoro-3-(trifluoromethyl)phenyl)-2-(2-oxo-2-(pyrrolidin-1-yl)ethyl)pyrrolo[1,2-a]pyrazin-1(2H)-one] | 77%
O=C(Cn1ccc2c(c(-c3ccc(F)c(C(F)(F)F)c3)cn2-c2ccccc2)c1=O)N1CCC(F)C1 (stereo not drawn) [Example 230, 3-(4-fluoro-3-(trifluoromethyl)phenyl)-5-(2-(3-fluoropyrrolidin-1-yl)-2-oxoethyl)-1-phenyl-1H-pyrrolo[3,2-c]pyridin-4(5H)-one] | 109%
CN(C)CCn1cc(-c2ccc(F)c(Cl)c2)c2c(=O)n(CC(=O)N3CCC(F)C3)ccc21 (stereo not drawn) [Example 245, 3-(3-chloro-4-fluorophenyl)-1-(2-(dimethylamino)ethyl)-5-(2-(3-fluoropyrrolidin-1-yl)-2-oxoethyl)-1H-pyrrolo[3,2-c]pyridin-4(5H)-one] | 14%
O=C(Cn1ccc2c(c(-c3ccc(F)c(Cl)c3)cn2-c2ccccn2)c1=O)N1CCC(F)C1 (stereo not drawn) [Example 228, 3-(4-chloro-4-fluorophenyl)-5-(2-(3-fluoropyrrolidin-1-yl)-2-oxoethyl)-1-(pyridin-2-yl)-1H-pyrrolo[3,2-c]pyridin-4(5H)-one] | 39%
O=C(Cn1ccc2c(c(-c3ccc(F)c(Cl)c3)cn2CCF)c1=O)N1CCC(F)C1 (stereo not drawn) [Example 253, 3-(3-chloro-4-fluorophenyl)-1-(2-fluoroethyl)-5-(2-(3-fluorpyrrolidin-1-yl)-2-oxoethyl)-1H-pyrrolo[3,2-c]pyridin-4(5H)-one] | 66%
O=C(Cn1cnc2csc(-c3ccc(Cl)cc3)c2c1=O)NC1CC1 [Example 346, 2-(5-(4-chlorophenyl)-4-oxothieno[3,4-d]pyrimidin-3(4H)-yl)-N-cyclopropylacetamide] | 0%
O=C(Cn1cnc2ccn(-c3ccc(Cl)cc3)c2c1=O)N1CCCC1C(F)(F)F (stereo not drawn) [Example 379, 5-(4-chlorophenyl)-3-(2-oxo-2-(2-(trifluoromethyl)pyrrolidin-1-yl)ethyl)-3H-pyrrolo[3,2-d]pyrimidin-4(5H)-one] | 5%
O=C(Cn1cnc2c(c(-c3ccc(Cl)c(C(F)(F)F)c3)cn2C2CC2)c1=O)N1CCCC1 [Example 190, 5-(4-chloro-3-(trifluoromethyl)phenyl)-7-cyclopropyl-3-(2-oxo-2-(pyrrolidin-1-yl)ethyl)-3H-pyrrolo[2,3-d]pyrimidin-4(7H)-one] | 71%
O=C(Cn1ccc2scc(-c3ccc(F)c(Cl)c3)c2c1=O)N1CC2(CC2)C1 [Example 71, 3-(3-chloro-4-fluorophenyl)-5-(2-oxo-2-(5-azaspiro[2.3]hexan-5-yl)ethyl)thieno[3,2-c]pyridin-4(5H)-one] | 46%
CC1(F)CN(C(=O)Cn2ccc3c(c(-c4cnc(Cl)c(Cl)c4)cn3C3CC3)c2=O)C1 [Example 289, 1-cyclopropyl-3-(5,6-dichloropyridin-3-yl)-5-(2-(3-fluoro-3-methylazetidin-1-yl)-2-oxoethyl)-1H-pyrrolo[3,2-c]pyridin-4(5H)-one] | 120%
O=C(Cn1ccc2scc(-c3ccc(Cl)c(Cl)c3)c2c1=O)N1CC2C(C1)C2(F)F (stereo not drawn) [Example 66, 3-(3,4-dichlorophenyl)-5-(2-(6,6-difluoro-3-azabicyclo[3.1.0]hex-an-3-yl)-2-oxoethyl)thieno[3,2-c]pyridin-4(5H)-one] | 26%
O=C(Cn1ccn2ccc(-c3ccc(F)c(C(F)(F)F)c3)c2c1=O)N1CC(F)(CF)C1 [Example 407, 2-(2-(3-fluoro-3-(fluoromethyl)azetidin-1-yl)-2-oxoethyl)-8-(4-fluoro-3-(trifluoromethyl)phenyl)pyrrolo[1,2-a]pyrazin-1(2H)-one] | 130%
Cn1cc(-n2cc(-c3ccc(F)c(Cl)c3)c3c(=O)n(CC(=O)N4CC(C)(F)C4)ccc32)cn1 [Example 286, 3-(3-chloro-4-fluorophenyl)-5-(2-(3-fluoro-3-methylazetidin-1-yl)-2-oxoethyl)-1-(1-methyl-1H-pyrazol-4-yl)-1H-pyrrolo[3,2-c]pyridin-4(5H)-one] | 130%
O=C(Cn1ncc2scc(-c3ccc(F)c(Cl)c3)c2c1=O)N1CC(F)(F)C1 [Example 341, 3-(3-chloro-4-fluorophenyl)-5-(2-(3,3-difluoroazetidin-1-yl)-2-oxoethyl)thieno[2,3-d]pyridazin-4(5H)-one] | 8%
O=C(Cn1cnc2occ(-c3ccc(Cl)cc3)c2c1=O)N1CCC(C(F)(F)F)C1 (stereo not drawn) [Example 387, 5-(4-chlorophenyl)-3-(2-oxo-2-(3-(trifluoromethyl)pyrrolidin-1-yl)ethyl)furo[2,3-d]pyrimidin-4(3H)-one] | 7%
O=C(Cn1ccc2cccc(-c3ccc(Cl)c(Cl)c3)c2c1=O)N1CCC(F)C1 (stereo not drawn) [Example 304, 8-(3,4-dichlorophenyl)-2-(2-(3-fluoropyrrolidin-1-yl)-2-oxoethyl)isoquinolin-1(2H)-one] | 60%
O=C(Cn1ncc2scc(-c3ccc(Cl)c(F)c3)c2c1=O)N1CCCC1 [Example 336, 3-(4-chloro-3-fluorophenyl)-5-(2-oxo-2-(pyrrolidin-1-yl)ethyl)thieno[2,3-d]pyridazin-4(5H)-one] | 3%
O=C(Cn1ccc2c(c(-c3ccc(F)c(C(F)(F)F)c3)cn2-c2ccnnc2)c1=O)N1CCC(F)C1 (stereo not drawn) [Example 262, 3-(4-fluoro-3-(trifluoromethyl)-phenyl)-5-(2-(3-fluoropyrrolidin-1-yl)-2-oxoethyl)-1-(pyridazin-4-yl)-1H-pyrrolo[3,2-c]pyridin-4(5H)-one] | 44%
O=C(Cn1cnc2[nH]cc(-c3ccc(Cl)c(F)c3)c2c1=O)N1CC(F)(F)C1 [Example 167, 5-(4-chloro-3-fluorophenyl)-3-(2-(3,3-difluoroazetidin-1-yl)-2-oxoethyl)-3H-pyrrolo[2,3-d]pyrimidin-4(7H)-one] | 35%
O=C(Cn1cnc2[nH]cc(-c3ccc(Cl)c(F)c3)c2c1=O)N1CCCC1 [Example 164, 5-(4-chloro-3-fluorophenyl)-3-(2-oxo-2-(pyrrolidin-1-yl)ethyl)-3H-pyrrolo[2,3-d]pyrimidin-4(7H)-one] | 48%
O=C(Cn1cnc2snc(-c3ccc(Cl)cc3)c2c1=O)N1CC(F)(F)C1 [Example 381, 3-(4-chlorophenyl)-5-(2-(3,3-difluoroazetidin-1-yl)-2-oxoethyl)isothiazolo[5,4-d]pyrimidin-4(5H)-one] | 2%
CCC1(F)CN(C(=O)Cn2ccc3scc(-c4ccc(Cl)c(Cl)c4)c3c2=O)C1 [Example 50, 3-(3,4-dichlorophenyl)-5-(2-(3-ethyl-3-fluoroazetidin-1-yl)-2-oxoethyl)thieno[3,2-c]pyridin-4(5H)-one] | 96%
Cn1cc(-c2ccc(Cl)c(Cl)c2)c2c(=O)n(CC(=O)N3CCC(F)C3)ccc21 (stereo not drawn) [Example 250, 3-(3,4-dichlorophenyl)-5-(2-(3-fluoropyrrolidin-1-yl)-2-oxoethyl)-1-methyl-1H-pyrrolo[3,2-c]pyridin-4(5H)-one] | 62%
O=C(Cn1ccc2c(c(-c3ccc(F)c(C(F)(F)F)c3)cn2-c2ccccn2)c1=O)N1CCC(F)C1 (stereo not drawn) [Example 225, 3-(4-fluoro-3-(trifluoromethyl)phenyl)-5-(2-(3-fluoropyrrolidin-1-yl)-2-oxoethyl)-1-(pyridin-2-yl)-1H-pyrrolo[3,2-c]pyridin-4(5H)-one] | 83%
CC1(O)CN(C(=O)Cn2ccc3scc(-c4ccc(F)c(C(F)(F)F)c4)c3c2=O)C1 [Example 55, 3-(4-fluoro-3-(trifluoromethyl)phen-yl)-5-(2-(3-hydroxy-3-methylazetidin-1-yl)-2-oxoethyl)thieno[3,2-c]pyridin-4(5H)-one] | 14%
CC1(NC(=O)OC(C)(C)C)CN(C(=O)Cn2ccc3scc(-c4ccc(Cl)c(Cl)c4)c3c2=O)C1 [Example 73, tert-butyl (1-(2-(3-(3,4-dichlorophenyl)-4-oxothieno[3,2-c]pyridin-5(4H)-yl)acetyl)-3-methylazetidin-3-yl)carbamate] | 9.8%
CC(C)(O)Cn1cc(-c2ccc(F)c(C(F)(F)F)c2)c2c(=O)n(CC(=O)N3CC(F)C(F)C3)ccc21 (stereo not drawn) [Example 258, 5-(2-(3,4-difluoropyrrolidin-1-yl)-2-oxoethyl)-3-(4-fluoro-3-(trifluoromethyl)phenyl)-1-(2-hydroxy-2-methylpropyl)-1H-pyrrolo[3,2-c]pyridin-4(5H)-one] | 13%
Cc1cc(-c2csc3ccn(CC(=O)N4CC(C)(F)C4)c(=O)c23)cnc1Cl [Example 84, 3-(6-chloro-5-methylpyridin-3-yl)-5-(2-(3-fluoro-3-methylazetidin-1-yl)-2-oxoethyl)thieno[3,2-c]pyridin-4(5H)-one] | 39%
C[Si](C)(C)CCOCn1cc(-c2ccc(F)c(Cl)c2)c2c(=O)n(CC(=O)N3CCC(F)C3)ccc21 (stereo not drawn) [Example 206, 3-(3-chloro-4-fluorophenyl)-5-(2-(3-fluoropyrrolidin-1-yl)-2-oxoethyl)-1-((2-(trimethylsilyl)ethoxy)methyl)-1H-pyrrolo[3,2-c]pyridin-4(5H)-one] | 107%
Cn1cnc(-n2cc(-c3ccc(F)c(C(F)(F)F)c3)c3c(=O)n(CC(=O)N4CCC(F)C4)ccc32)n1 (stereo not drawn) [Example 266, 3-(4-fluoro-3-(trifluoromethyl)phenyl)-5-(2-(3-fluoropyrrolidin-1-yl)-2-oxoethyl)-1-(1-methyl-1H-1,2,4-triazol-3-yl)-1H-pyrrolo[3,2-c]pyridin-4(5H)-one] | 95%

Source: patent US12162890B2 (Novartis AG, priority 2015, dated 2024)
